Measured values: patent EP1076558B1, “2-PHENYL-1-[-(2-AMINOETHOXY)-BENZYL -INDOLE IN COMBINATION WITH ESTROGENS” (Wyeth, priority 1998, dated 1999)
Marks after values point to notes of the source that are not given here.

How the values were obtained:
Ovariectomized Rat = assay: 6-Week Ovariectomized Rat Model; type: in vivo; conditions: ovx rats, daily x7 days/week, mean; for Body Weight / Cholesterol / Uterine Weight: following 6 weeks of treatment; for BMD L4 / BMD Proximal Tibia: following 5 weeks of treatment
Excerpt: Female Sprague Dawley CD rats, ovx or sham ovx, were obtained 1 day after surgery from Taconic Farm (weight range 240 - 275 g). They were housed 3 or 4 rats/cage in a room on a 14/10 (light/dark) schedule and provided with food (Purina 500 rat chow) and water ad libitum. Treatment for all studies began 1 day after the animals arrival and dosed 5 or 7 days per week as indicated for 6 weeks. A group of age matched sham operated rats not receiving any treatment served as an intact, estrogen replete control group for each study. All treatments were prepared in 1% tween 80 in normal saline at defined concentrations so that the treatment volume was 0.1mL/100g body weight. 17-beta estradiol was dissolved in corn oil (20 uG/mL) and delivered subcutaneously, 0.1 mL/rat. All dosages were adjusted at three week intervals according to group mean body weight measurements.
Five weeks after the initiation of treatment and one week prior to the termination of the study, each rat was evaluated for bone mineral density (BMD). The BMD's of the proximal tibiae (PT) and fourth lumbar vertabrae (L4) were measured in anesthetized rats using a dual energy X-ray absorptiometer (Eclipse XR-26, Norland Corp. Ft. Atkins, WI). The dual energy X-ray absorptiometer (DXA) measurements for each rat were performed as follows: Fifteen minutes prior to DXA measurements, the rat was anesthetized with an intraperitoneal injection of 100 mg/kg ketamine (Bristol Laboratories, Syracuse, NY) and 0.75 mg/kg acepromazine (Aveco, Ft.Dodge, IA). The rat was placed on an acrylic table under the DXA scanner perpendicular to its path; the limbs were extended and secured with paper tape to the surface of the table. A preliminary scan was performed at a scan speed of 50 mm/second with a scan resolution of 1.5 mm X 1.5 mm to determine the region of interest in PT and L4. Small subject software was employed at a scan speed of 10mm/second with resolution of 0.5 mm X 0.5 mm for final BMD measurements. The software allows the operator to define a 1.5 cm wide area to cover the total length of L4. The BMDs for respective sites were computed by the software as a function of the attenuation of the dual beam (46.8 KeV and 80 KeV) X-ray generated by the source underneath the subject and the detector travelling along the defined area above the subject. The data for BMD values (expressed in g/cm2) and individual scans were stored for statistical analysis. One week after BMD evaluation the rats were sacrificed by carbon dioxide suffocation and blood collected for cholesterol determination. The uteri were removed and the weights taken. Total cholesterol is determined using a Boehringer-Mannheim Hitachi 911 clinical analyzer using the Cholesterol/HP kit. Statitstics were compared using one-way analysis of variance with Dunnet's test.

Ishikawa cells = assay: Ishikawa Cell Alkaline Phosphatase Assay; type: cell-based, human; conditions: for % Activation: percent of response related to 1 nM 17β-estradiol, 48 h
Description: Cells were treated for 48 h prior to assay. […] Sample population for at each dose was n=8. […] Plates are placed at -80°C for a minimum of 15 minutes. Plates are thawed at 37°C followed by the addition of 150μL of 0.1 M Tris-HCl, pH 9.8, containing 4 mM para-nitrophenylphosphate (pNPP) to each well (final concentration. 3 mM pNPP). Absorbance and slope calculations were made using the […] Application program (Bio-Tek Instruments, Inc., Winooski, VT). […] Various compounds were assayed for estrogenic activity by the alkaline phosphatase method and corresponding ED50 values (95% C.I.) were calculated. The four listed in the following were used as as reference standards: A description of these methods is described by Holinka, […]., Kuramoto, H. and Gurpide, E. (1986) Effects of steroid hormones and antisteroids on alkaline phosphatase activity in human endometrial cancer cells (Ishikawa Line). Cancer Research, 46:2771-2774, and by […]. and […] simple and sensitive microtiter plate estrogen bioassay based on stimulation alkaline phosphatase in Ishikawa cells; […] Endocrinology, 6:2757-2762.

[1] = with 1 nM 17β-estradiol (antiestrogen test)

SMILES	Body Weight (Ovariectomized Rat; 2µg/rat, s.c.)	EC50 (Ishikawa cells; Homo sapiens, Ishikawa, estrogenic activity by the alkaline phosphatase method, reference standards, read-out: ED50 values (95% C.I.)) [nM]	% Activation (Ishikawa cells; compound alone)	BMD L4 (Ovariectomized Rat; 0.3mg/kg, p.o.) [mg/cm^2]	BMD Proximal Tibia (Ovariectomized Rat; 0.3mg/kg, p.o.)	Body Weight (Ovariectomized Rat; 0.3mg/kg, p.o.) [g]	Cholesterol (Ovariectomized Rat; 0.3mg/kg, p.o.)	Uterine Weight (Ovariectomized Rat; 0.3mg/kg, p.o.) [mg]	% Activation (Ishikawa cells; [1])	BMD L4 (Ovariectomized Rat; 3mg/kg, p.o.) [mg/cm^2]	BMD Proximal Tibia (Ovariectomized Rat; 3mg/kg, p.o.)	Body Weight (Ovariectomized Rat; 3mg/kg, p.o.)	Cholesterol (Ovariectomized Rat; 3mg/kg, p.o.)	Uterine Weight (Ovariectomized Rat; 3mg/kg, p.o.)
C[C@]12CC[C@@H]3c4ccc(O)cc4CC[C@H]3[C@@H]1CC[C@@H]2O [17β-estradiol]	33.1** g	[…]	[…]	–	–	–	–	–	–	–	–	–	–	–
Cc1c(-c2ccc(O)cc2)n(Cc2ccc(OCCN3CCCCCC3)cc2)c2ccc(O)cc12 [Example No. 98, 1-[4-(2-Azepan-1-yl-ethoxy)-benzyl]-2-(4-hydroxy-phenyl)-3-methyl-1H-indol-5-ol]	–	–	1% activity (1% with 1 nM 17β-estradiol)	0.173	0.210** mg/cm^2	46.8	59.0** mg/dl	149.3	1% activity (1% with 1 nM 17β-estradiol)	–	–	–	–	–
O=C(c1ccc(OCCN2CCCCC2)cc1)c1c(-c2ccc(O)cc2)sc2cc(O)ccc12 [raloxifene]	–	–	5% activity (5% with 1 nM 17β-estradiol)	–	–	–	–	–	5% activity (5% with 1 nM 17β-estradiol)	0.170	0.207** mg/cm^2	25.3** g	55.0** mg/dl	191.6** mg
